# Reference: paper PMC3833293 (ACS Chemical Biology, 2013)
# Columns and labels:
# [1] = test system: wild-type and drug-resistant HIV clones; assay: Monogram drug susceptibility assays, profile across viral panel; type: cell-based, HIV-1; conditions: weakest EC50 to a variant divided by that to wild-type
# wild-type HIV-1 protease = wild-type HIV-1 protease (Human immunodeficiency virus type 1 group M subtype B, UniProt P03369); assay: FRET enzyme inhibition assay, wild-type protease; type: biochemical
# [2] = test system: wild-type HIV-1 protease and drug-resistant variants M1, M2, M3, M4; assay: FRET enzyme inhibition, profile across wild type and mutant panel; type: biochemical; conditions: weakest Ki to a drug-resistant variant divided by Ki to wild type
# [3] = target: HIV-1 protease M4 (I50V, A71V) (Human immunodeficiency virus type 1 group M subtype B, UniProt P03369, A561V/I540V); assay: FRET enzyme inhibition assay, M4 variant; type: biochemical
# [4] = target: HIV-1 protease M2 (D30N, N88D) (Human immunodeficiency virus type 1 group M subtype B, UniProt P03369, D520N/N578D); assay: FRET enzyme inhibition assay, M2 variant; type: biochemical
smiles,measurement,setting,value
CC[C@H](C)[C@H](NC(C)=O)C(=O)N[C@@H](Cc1ccccc1)[C@H](O)CN(CC(C)C)S(=O)(=O)c1ccc(OC)cc1 [AF-68],worst-fold activity loss,[1],4.4 fold
CC[C@H](C)CN(C[C@@H](O)[C@H](Cc1ccccc1)NC(=O)c1cccc(O)c1)S(=O)(=O)c1ccc(-c2ccno2)s1 [AF-71],loss in affinity to wild-type protease compared to parent compound,"wild-type HIV-1 protease; AF-71 vs AD-93, AF-80 vs KB-83",72 fold
O=C(N[C@@H](Cc1ccccc1)[C@H](O)CN(CC1CCCCC1)S(=O)(=O)c1ccc2ncsc2c1)c1cccc(O)c1 [AF-72],worst-fold activity loss,[1],2.6 fold
COc1ccc(S(=O)(=O)N(CC2CCCCC2)C[C@@H](O)[C@H](Cc2ccccc2)NC(=O)c2cccc(O)c2)cc1 [AF-77],worst-fold activity loss,[1],2.2 fold
COc1ccc(S(=O)(=O)N(CCCc2ccccc2)C[C@@H](O)[C@H](Cc2ccccc2)NC(=O)c2cccc(O)c2)cc1 [AF-78],worst-fold affinity loss,[2],98 fold
CC[C@H](C)CN(C[C@@H](O)[C@H](Cc1ccccc1)NC(=O)[C@@H](NC(C)=O)[C@@H](C)CC)S(=O)(=O)c1ccc2ncsc2c1 [AG-23],Ki,[3],0.092 ± 0.025 nM
same,worst-fold activity loss,[1],3.2 fold
same,Ki,"wild-type HIV-1 protease; Ki, wild type, mean ± standard deviation",0.021 ± 0.009 nM
same,Ki,[4],0.028 ± 0.025 nM
